Assay results published in PMC4948722 (Cancer research, 2011).

How the values were obtained:
Test in all cases: kinase panel, […] compound, […] ATP
Format in all cases: biochemical
Conditions in all cases: read-out: % inhibition at 1 μM
GCK = molecular target: T1, GCK (Homo sapiens, UniProt Q12851)
T1 sequence (Q12851 1-820): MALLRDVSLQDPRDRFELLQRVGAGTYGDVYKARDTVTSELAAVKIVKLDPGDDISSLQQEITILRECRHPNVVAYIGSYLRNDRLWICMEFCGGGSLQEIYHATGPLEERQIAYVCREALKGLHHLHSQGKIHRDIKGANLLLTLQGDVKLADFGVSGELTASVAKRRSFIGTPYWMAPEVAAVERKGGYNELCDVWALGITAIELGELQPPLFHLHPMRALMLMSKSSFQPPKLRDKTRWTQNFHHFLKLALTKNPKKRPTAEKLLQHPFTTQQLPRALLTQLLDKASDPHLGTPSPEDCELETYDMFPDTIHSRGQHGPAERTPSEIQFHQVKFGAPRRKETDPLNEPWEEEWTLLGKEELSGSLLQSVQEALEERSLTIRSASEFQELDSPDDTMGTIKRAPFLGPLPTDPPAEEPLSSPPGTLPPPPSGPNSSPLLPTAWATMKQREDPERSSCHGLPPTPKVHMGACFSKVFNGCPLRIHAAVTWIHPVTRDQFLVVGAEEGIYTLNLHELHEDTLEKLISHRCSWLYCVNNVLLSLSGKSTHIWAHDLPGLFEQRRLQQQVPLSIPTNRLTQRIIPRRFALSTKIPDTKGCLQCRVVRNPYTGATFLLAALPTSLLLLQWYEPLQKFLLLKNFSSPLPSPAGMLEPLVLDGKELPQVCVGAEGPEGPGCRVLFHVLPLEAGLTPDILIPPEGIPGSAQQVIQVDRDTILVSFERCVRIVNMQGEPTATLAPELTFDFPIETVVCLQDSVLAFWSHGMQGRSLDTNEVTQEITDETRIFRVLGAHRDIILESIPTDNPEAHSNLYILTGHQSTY

MLK1 = MLK1 (Homo sapiens, UniProt P80192)
MARK3 = MARK3 (Homo sapiens, UniProt P27448)

Measured: inhibition at 1 µM

MLK1, sequence (P80192 whole entry): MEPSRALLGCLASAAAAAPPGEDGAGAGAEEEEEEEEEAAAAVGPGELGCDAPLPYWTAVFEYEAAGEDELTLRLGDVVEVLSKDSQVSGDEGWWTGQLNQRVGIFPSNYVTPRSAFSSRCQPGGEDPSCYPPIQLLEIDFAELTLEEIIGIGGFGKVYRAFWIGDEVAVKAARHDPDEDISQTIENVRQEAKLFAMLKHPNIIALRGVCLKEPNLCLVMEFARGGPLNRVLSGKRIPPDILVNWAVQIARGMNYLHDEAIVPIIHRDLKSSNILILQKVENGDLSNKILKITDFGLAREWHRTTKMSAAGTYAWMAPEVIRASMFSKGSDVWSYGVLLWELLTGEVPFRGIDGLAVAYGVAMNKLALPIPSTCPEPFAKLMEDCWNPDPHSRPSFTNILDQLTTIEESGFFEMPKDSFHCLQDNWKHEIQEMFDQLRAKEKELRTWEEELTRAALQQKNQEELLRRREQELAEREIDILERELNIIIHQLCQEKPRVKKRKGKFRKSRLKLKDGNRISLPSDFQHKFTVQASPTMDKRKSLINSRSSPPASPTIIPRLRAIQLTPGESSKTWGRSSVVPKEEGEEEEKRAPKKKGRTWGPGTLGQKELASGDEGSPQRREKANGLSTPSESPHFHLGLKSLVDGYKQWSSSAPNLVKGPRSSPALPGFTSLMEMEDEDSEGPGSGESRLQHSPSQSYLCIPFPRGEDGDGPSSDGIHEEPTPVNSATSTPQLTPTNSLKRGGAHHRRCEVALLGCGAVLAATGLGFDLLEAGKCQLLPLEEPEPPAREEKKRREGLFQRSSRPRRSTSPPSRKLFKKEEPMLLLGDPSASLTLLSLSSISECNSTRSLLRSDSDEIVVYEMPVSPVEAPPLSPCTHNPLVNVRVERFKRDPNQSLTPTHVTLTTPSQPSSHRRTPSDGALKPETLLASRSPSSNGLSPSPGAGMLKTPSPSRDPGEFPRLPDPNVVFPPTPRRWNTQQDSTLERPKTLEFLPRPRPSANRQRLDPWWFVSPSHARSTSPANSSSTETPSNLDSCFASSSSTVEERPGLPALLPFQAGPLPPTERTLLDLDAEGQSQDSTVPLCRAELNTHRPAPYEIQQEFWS
MARK3, sequence (P27448 whole entry): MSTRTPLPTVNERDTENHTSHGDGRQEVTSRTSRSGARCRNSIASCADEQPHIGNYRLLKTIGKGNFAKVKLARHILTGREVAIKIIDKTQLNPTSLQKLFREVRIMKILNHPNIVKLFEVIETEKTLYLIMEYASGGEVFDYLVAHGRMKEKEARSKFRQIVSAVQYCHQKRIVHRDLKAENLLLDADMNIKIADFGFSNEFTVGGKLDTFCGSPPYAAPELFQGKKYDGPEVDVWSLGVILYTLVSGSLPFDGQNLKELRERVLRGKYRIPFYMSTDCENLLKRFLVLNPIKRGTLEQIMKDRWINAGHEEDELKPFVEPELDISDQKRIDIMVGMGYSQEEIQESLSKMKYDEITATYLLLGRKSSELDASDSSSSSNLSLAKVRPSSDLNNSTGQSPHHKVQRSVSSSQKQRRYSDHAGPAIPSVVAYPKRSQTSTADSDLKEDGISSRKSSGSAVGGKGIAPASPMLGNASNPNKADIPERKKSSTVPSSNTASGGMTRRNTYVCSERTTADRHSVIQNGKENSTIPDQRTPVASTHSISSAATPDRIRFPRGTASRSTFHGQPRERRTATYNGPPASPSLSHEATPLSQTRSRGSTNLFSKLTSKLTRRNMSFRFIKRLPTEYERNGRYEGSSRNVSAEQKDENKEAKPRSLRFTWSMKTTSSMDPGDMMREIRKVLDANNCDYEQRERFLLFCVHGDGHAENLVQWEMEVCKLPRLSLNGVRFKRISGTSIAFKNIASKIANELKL

COc1cc2nc(-c3cc(F)ccc3O)nc(N[C@@H]3CNC[C@H]3C(C)(C)O)c2cc1OC [CCT241533]
> 80%: GCK | MLK1 | MARK3
